According to patent US9814704B2, “Substituted pyrrolo[2,3-b]pyridines as MLK inhibitors” (The University of Rochester, priority 2008, dated 2017):

target: MLK3 (Homo sapiens (Human), UniProt Q16584); assay: Radiometric Filter Plate MLK3 Assay; type: biochemical; conditions: 200 ng (130 nM) MLK3, 1 μM inactive MKK7b, 2 μM cold ATP (Km), 33P ATP, twenty minute incubation; read-out: MK3 IC50
Method: Radiometric Filter Plate MLK3 Assay
After a twenty minute incubation, the reactions were washed through filter plates and read on a scintillation counter. Results are shown in Table 4 below, in which +++ indicates ≦0.1 μM, ++ indicates >0.1 μM and ≦1 μM, and + indicates >1 μM.

Chain of MLK3 (Q16584 whole entry): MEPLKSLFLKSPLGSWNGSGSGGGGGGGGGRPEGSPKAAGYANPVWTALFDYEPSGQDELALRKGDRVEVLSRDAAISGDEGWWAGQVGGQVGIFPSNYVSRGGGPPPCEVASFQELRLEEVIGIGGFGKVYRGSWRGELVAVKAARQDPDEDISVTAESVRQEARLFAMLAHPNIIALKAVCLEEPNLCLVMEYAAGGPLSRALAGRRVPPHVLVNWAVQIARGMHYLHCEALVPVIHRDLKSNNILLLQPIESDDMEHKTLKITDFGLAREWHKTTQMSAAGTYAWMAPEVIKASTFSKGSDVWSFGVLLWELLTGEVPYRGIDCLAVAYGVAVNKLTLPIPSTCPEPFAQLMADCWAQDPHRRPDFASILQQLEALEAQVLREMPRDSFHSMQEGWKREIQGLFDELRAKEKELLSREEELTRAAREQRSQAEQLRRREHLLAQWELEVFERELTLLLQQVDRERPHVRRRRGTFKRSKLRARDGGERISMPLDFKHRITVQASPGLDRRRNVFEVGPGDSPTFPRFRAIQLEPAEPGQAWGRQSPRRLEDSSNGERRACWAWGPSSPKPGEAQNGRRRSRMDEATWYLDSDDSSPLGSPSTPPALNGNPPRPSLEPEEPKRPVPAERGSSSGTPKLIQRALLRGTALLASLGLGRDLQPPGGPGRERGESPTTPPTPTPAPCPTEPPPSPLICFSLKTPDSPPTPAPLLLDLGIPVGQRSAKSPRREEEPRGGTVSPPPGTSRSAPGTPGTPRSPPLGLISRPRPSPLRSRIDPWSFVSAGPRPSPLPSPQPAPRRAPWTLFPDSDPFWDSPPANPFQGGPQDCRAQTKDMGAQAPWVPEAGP

IC50 [µM]	Compound
< 0.1	CN1CCN(Cc2ccc(-c3cnc4[nH]cc(-c5ccc(C(N)=O)cc5)c4c3)cc2)CC1=O [Example 158, 4-{5-[4-(4-methyl-3-oxo-piperazin-1-ylmethyl)-phenyl]-1H-pyrrolo[2,3-b]pyridin-3-yl}-benzamide]
< 0.1	CN(C)Cc1ccc(-c2cnc3[nH]cc(-c4ccc5[nH]ccc5c4)c3c2)cc1 [Example 33, 1-(4-(3-(1H-indol-5-yl)-1H-pyrrolo[2,3-b]pyridin-5-yl)phenyl)-N,N-dimethylmethanamine]
< 0.1	COc1cc(-c2cnc3[nH]cc(-c4ccc5[nH]ccc5c4)c3c2)ccc1N [Example 5, 4-(3-(1H-indol-5-yl)-1H-pyrrolo[2,3-b]pyridin-5-yl)-2-methoxyaniline]
> 1	O=c1[nH]c2ncc(-c3ccc(N4CCOCC4)cc3)nc2n1-c1ccc2[nH]ncc2c1 [Example 89, 1-(1H-indazol-5-yl)-6-(4-morpholinophenyl)-1H-imidazo[4,5-b]pyrazin-2(3H)-one]
> 1	COc1cc(-c2cnc3c(c2)C(Cc2ccc(C(N)=O)cc2)C(=O)N3)cc(OC)c1OC (stereo not shown) [Example 138, 4-[2-oxo-5-(3,4,5-trimethoxy-phenyl)-2,3-dihydro-1H-pyrrolo[2,3-b]pyridin-3-ylmethyl]-benzamide]
> 1	O=c1[nH]c2ncc(-c3cc(Cl)cc(Cl)c3)nc2n1CC1CC1 [Example 80, 1-(cyclopropylmethyl)-6-(3,5-dichlorophenyl)-1H-imidazo[4,5-b]pyrazin-2(3H)-one]
< 0.1	CNC(=O)c1ccc(-c2c[nH]c3ncc(-c4ccc(CN5CCN(C)CC5)cc4)cc23)cc1 [Example 165, N-methyl-4-{5-[4-(4-methyl-piperazin-1-ylmethyl)-phenyl]-1H-pyrrolo[2,3-b]pyridin-3-yl}-benzamide]
> 1	CN1CCN(Cc2ccc(-c3c[nH]c4ncc(-c5ccc6[nH]ccc6c5)cc34)cc2)CC1 [Example 163, 5-(1H-indol-5-yl)-3-[4-(4-methyl-piperazin-1-ylmethyl)-phenyl]-1H-pyrrolo[2,3-b]pyridine]
< 0.1	CC(=O)N1CCN(Cc2ccc(-c3cnc4[nH]cc(-c5ccc(C(N)=O)cc5)c4c3)cc2)CC1 [Example 157, 4-{5-[4-(4-acetyl-piperazin-1-ylmethyl)-phenyl]-1H-pyrrolo[2,3-b]pyridin-3-yl}-benzamide]
< 0.1	CC(=O)Nc1ccc(-c2cnc3[nH]cc(-c4ccc5[nH]ccc5c4)c3c2)cc1 [Example 3, N-(4-(3-(1H-indol-5-yl)-1H-pyrrolo[2,3-b]pyridin-5-yl)phenyl)acetamide]
> 1	O=c1[nH]c2ncc(-c3ccc(O)cc3)nc2n1-c1ccc2cn[nH]c2c1 [Example 92, 6-(4-hydroxyphenyl)-1-(1H-indazol-6-yl)-1H-imidazo[4,5-b]pyrazin-2(3H)-one]

More lines, now with the values behind:

Compound	IC50 [µM]
Nc1ncc(-c2cnc3[nH]cc(-c4cnc(N)nc4)c3c2)cn1 [Example 20, 5,5′-(1H-pyrrolo[2,3-b]pyridine-3,5-diyl)dipyrimidin-2-amine]	> 1
COc1cc(-c2cnc3c(c2)C(=Cc2ccc(C#N)cc2)C(=O)N3)cc(OC)c1OC [Example 133, 4-[2-oxo-5-(3,4,5-trimethoxy-phenyl)-1,2-dihydro-pyrrolo[2,3-b]pyridin-3-ylidenemethyl]-benzonitrile]	> 1
Cc1cc(C)cc(-c2cnc3[nH]c(=O)n(-c4ccc5cn[nH]c5c4)c3n2)c1 [Example 95, 6-(3,5-dimethylphenyl)-1-(1H-indazol-6-yl)-1H-imidazo[4,5-b]pyrazin-2(3H)-one]	> 1
COc1ccc(-c2cnc3[nH]c(=O)n(C4CCCC4)c3n2)cc1OC [Example 75, 1-cyclopentyl-6-(3,4-dimethoxyphenyl)-1H-imidazo[4,5-b]pyrazin-2(3H)-one]	> 1
CN1CCN(c2cc(-c3cnc4[nH]c(=O)n(-c5ccc6[nH]ccc6c5)c4n3)ccn2)CC1 [Example 66, 1-(1H-indol-5-yl)-6-(2-(4-methylpiperazin-1-yl)pyridin-4-yl)-1H-imidazo[4,5-b]pyrazin-2(3H)-one]	> 1
Nc1ccc(-c2cnc3[nH]cc(-c4ccc5[nH]ccc5c4)c3c2)cc1 [Example 8, 4-(3-(1H-indol-5-yl)-1H-pyrrolo[2,3-b]pyridin-5-yl)aniline]	< 0.1
O=c1[nH]c2ncc(-c3ccc(N4CCOCC4)cc3)nc2n1-c1ccc2scnc2c1 [Example 100, 1-(benzo[d]thiazol-5-yl)-6-(4-morpholinophenyl)-1H-imidazo[4,5-b]pyrazin-2(3H)-one]	> 1
Cc1cc2cc(-n3c(=O)[nH]c4ncc(-c5ccncc5)nc43)ccc2[nH]1 [Example 85, 1-(2-methyl-1H-indol-5-yl)-6-(pyridin-4-yl)-1H-imidazo[4,5-b]pyrazin-2(3H)-one]	> 1
COc1cc(-c2cnc3[nH]cc(-c4ccc5c(ccn5C)c4)c3c2)cc(OC)c1OC [Example 24, 3-(1-methyl-1H-indol-5-yl)-5-(3,4,5-trimethoxyphenyl)-1H-pyrrolo[2,3-b]pyridine]	< 0.1
O=c1[nH]c2ncc(-c3cc(Cl)cc(Cl)c3)nc2n1-c1ccc2[nH]ccc2c1 [Example 48, 6-(3,5-dichlorophenyl)-1-(1H-indol-5-yl)-1H-imidazo[4,5-b]pyrazin-2(3H)-one]	> 1
Nc1ccc(-c2cnc3[nH]c(=O)n(C4CCCC4)c3n2)cn1 [Example 117, 6-(6-aminopyridin-3-yl)-1-cyclopentyl-1H-imidazo[4,5-b]pyrazin-2(3H)-one]	> 1
O=c1[nH]c2ncc(-c3ccc(O)cc3)nc2n1CC1CC1 [Example 81, 1-(cyclopropylmethyl)-6-(4-hydroxyphenyl)-1H-imidazo[4,5-b]pyrazin-2(3H)-one]	> 1

same assay, conditions: read-out: MK3 IC50

IC50 [µM]	Compound
0.1 to 1	COc1cc(-c2cnc3[nH]c(=O)n(-c4ccccc4)c3n2)cc(OC)c1OC [Example 105, 1-phenyl-6-(3,4,5-trimethoxyphenyl)-1H-imidazo[4,5-b]pyrazin-2(3H)-one]
0.1 to 1	COc1cc(-c2cnc3c(c2)C(Cc2ccccc2)(Cc2ccccc2)C(=O)N3)cc(OC)c1OC [Example 139, 3,3-dibenzyl-5-(3,4,5-trimethoxy-phenyl)-1,3-dihydro-pyrrolo[2,3-b]pyridin-2-one]
0.1 to 1	COc1ccc(-c2cnc3[nH]cc(-c4ccc5[nH]ccc5c4)c3c2)cn1 [Example 6, 3-(1H-indol-5-yl)-5-(6-methoxypyridin-3-yl)-1H-pyrrolo[2,3-b]pyridine]
0.1 to 1	COc1cc(-c2cnc3[nH]c(=O)n(CC4CC4)c3n2)cc(OC)c1OC [Example 78, 1-(cyclopropylmethyl)-6-(3,4,5-trimethoxyphenyl)-1H-imidazo[4,5-b]pyrazin-2(3H)-one]
< 0.1	COc1cc(-c2cnc3[nH]cc(-c4ccc5[nH]ccc5c4)c3c2)ccc1OCCN1CCNCC1 [Example 34, 3-(1H-indol-5-yl)-5-(3-methoxy-4-(2-(piperazin-1-yl)ethoxy)phenyl)-1H-pyrrolo[2,3-b]pyridine]
0.1 to 1	CC(=O)N1CCN(C(=O)c2cccc(-c3cnc4[nH]cc(-c5ccc(C(N)=O)cc5)c4c3)c2)CC1 [Example 153, 4-{5-[3-(4-acetyl-piperazine-1-carbonyl)-phenyl]-1H-pyrrolo[2,3-b]pyridin-3-yl}-benzamide]
0.1 to 1	COc1ccc(-c2cnc3[nH]c(=O)n(-c4ccc5cn[nH]c5c4)c3n2)cc1OC [Example 91, 6-(3,4-dimethoxyphenyl)-1-(1H-indazol-6-yl)-1H-imidazo[4,5-b]pyrazin-2(3H)-one]

Continued, compound first:

Compound	IC50 [µM]
COc1cc(-c2cnc3[nH]cc(-c4ccc(CNC(=O)Cc5ccccc5)cc4)c3c2)cc(OC)c1OC [Example 160, 2-phenyl-N-{4-[5-(3,4,5-trimethoxy-phenyl)-1H-pyrrolo[2,3-b]pyridin-3-yl]-benzyl}-acetamide]	0.1 to 1
COc1ccc(-c2cnc3[nH]c(=O)n(-c4ccc5[nH]cnc5c4)c3n2)cc1OC [Example 103, 1-(1H-benzo[d]imidazol-5-yl)-6-(3,4-dimethoxyphenyl)-1H-imidazo[4,5-b]pyrazin-2(3H)-one]	0.1 to 1
O=c1[nH]c2ncc(-c3ccc4[nH]ccc4c3)nc2n1-c1ccc2[nH]ccc2c1 [Example 53, 1,6-di(1H-indol-5-yl)-1H-imidazo[4,5-b]pyrazin-2(3H)-one]	0.1 to 1
COc1cc(-c2cnc3[nH]c(=O)n(CC4CC4)c3n2)ccc1OCCN1CCOCC1 [Example 107, 1-(cyclopropylmethyl)-6-(3-methoxy-4-(2-morpholinoethoxy)phenyl)-1H-imidazo[4,5-b]pyrazin-2(3H)-one]	0.1 to 1
O=c1[nH]c2ncc(-c3ccc4c(c3)OCCO4)nc2n1-c1ccc2[nH]ccc2c1 [Example 63, 6-(2,3-dihydrobenzo[b][1,4]dioxin-6-yl)-1-(1H-indol-5-yl)-1H-imidazo[4,5-b]pyrazin-2(3H)-one]	0.1 to 1
COc1cc(-c2cnc3[nH]cc(-c4ccc(-c5ncc[nH]5)cc4)c3c2)cc(OC)c1OC [Example 167, 3-[4-(1H-imidazol-2-yl)-phenyl]-5-(3,4,5-trimethoxy-phenyl)-1H-pyrrolo[2,3-b]pyridine]	0.1 to 1
O=c1[nH]c2ncc(-c3cccc(O)c3)nc2n1-c1ccc2[nH]ccc2c1 [Example 54, 6-(3-hydroxyphenyl)-1-(1H-indol-5-yl)-1H-imidazo[4,5-b]pyrazin-2(3H)-one]	0.1 to 1
O=c1[nH]c2ncc(-c3ccc(O)cc3)nc2n1-c1ccc2[nH]ccc2c1 [Example 45, 6-(4-hydroxyphenyl)-1-(1H-indol-5-yl)-1H-imidazo[4,5-b]pyrazin-2(3H)-one]	0.1 to 1
COc1ccc(-c2cnc3[nH]c(=O)n(-c4ccc(O)cc4)c3n2)cc1OC [Example 115, 6-(3,4-dimethoxyphenyl)-1-(4-hydroxyphenyl)-1H-imidazo[4,5-b]pyrazin-2(3H)-one]	0.1 to 1
O=c1[nH]c2ncc(-c3ccc(O)cc3)nc2n1C1CCCC1 [Example 76, 1-cyclopentyl-6-(4-hydroxyphenyl)-1H-imidazo[4,5-b]pyrazin-2(3H)-one]	0.1 to 1
